PubChem BioAssay (NCI)
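Values below derive from 48-hour exposures of cells grown in 96-well plates, with endpoints linearly interpolated between the two concentrations bracketing the appropriate inhibition level. GI50 is the concentration that inhibits growth by half. TGI is the concentration that stops growth completely.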

Assays:
Test in all cases: DTP human tumour cell line panel, 48 h
[1] = test system: 786-0 renal
[2] = test system: A498 renal
[3] = test system: A549 NSCLC
[4] = test system: ACHN renal
[5] = test system: BT-549 breast
[6] = test system: CAKI-1 renal
[7] = test system: CCRF-CEM leukemia
[8] = test system: COLO 205 colon
[9] = test system: DU-145 prostate
[10] = test system: EKVX NSCLC
[11] = test system: HCC-2998 colon
[12] = test system: HCT-116 colon
[13] = test system: HCT-15 colon
[14] = test system: HL-60(TB) leukemia
[15] = test system: HOP-62 NSCLC
[16] = test system: HOP-92 NSCLC
[17] = test system: HS 578T breast
[18] = test system: HT29 colon
[19] = test system: IGROV1 ovarian
[20] = test system: K-562 leukemia
[21] = test system: KM12 colon
[22] = test system: LOX IMVI melanoma
[23] = test system: M14 melanoma
[24] = test system: MALME-3M melanoma
[25] = test system: MCF7 breast
[26] = test system: MDA-MB-231 breast
[27] = test system: MDA-MB-435
[28] = test system: MOLT-4 leukemia
[29] = test system: NCI-H226 lung
[30] = test system: NCI-H23 lung
[31] = test system: NCI-H460 lung
[32] = test system: NCI-H522 lung
[33] = test system: NCI/ADR-RES ovarian
[34] = test system: OVCAR-3 ovarian
[35] = test system: OVCAR-4 ovarian
[36] = test system: OVCAR-5 ovarian
[37] = test system: OVCAR-8 ovarian
[38] = test system: PC-3 prostate
[39] = test system: RPMI-8226 leukemia
[40] = test system: RXF 393 renal
[41] = test system: SF-268 CNS
[42] = test system: SF-295 CNS
[43] = test system: SF-539 CNS
[44] = test system: SK-MEL-2 melanoma
[45] = test system: SK-MEL-28 melanoma
[46] = test system: SK-MEL-5 melanoma
[47] = test system: SK-OV-3 ovarian
[48] = test system: SN12C renal
[49] = test system: SNB-19 CNS
[50] = test system: SNB-75 CNS
[51] = test system: SW-620 colon
[52] = test system: T-47D breast
[53] = test system: TK-10 renal
[54] = test system: U251 CNS
[55] = test system: UACC-257 melanoma
[56] = test system: UACC-62 melanoma
[57] = test system: UO-31 renal

CC(C)(C)NC(=O)[C@H]1C[C@H]2CCCC[C@H]2CN1C[C@@H](O)[C@H](Cc1ccccc1)NC(=O)[C@H](CC(N)=O)NC(=O)c1ccc2ccccc2n1
GI50 [1]: 13.8 µM | TGI [1]: 31.1 µM | GI50 [2]: 15.7 µM | TGI [2]: 32.1 µM | GI50 [3]: 13.2 µM | TGI [3]: 31 µM | GI50 [4]: 16 µM | TGI [4]: 29.5 µM | GI50 [5]: 11.2 µM | TGI [5]: > 66.1 µM | GI50 [6]: 16.4 µM | TGI [6]: 33.1 µM | GI50 [7]: 9.31 µM | TGI [7]: 28 µM | GI50 [8]: 10.5 µM | TGI [8]: 29.8 µM | GI50 [9]: 1780 nM | TGI [9]: 6.95 µM | GI50 [10]: 3.57 µM | TGI [10]: > 59.9 µM | GI50 [11]: 13.4 µM | TGI [11]: 26.8 µM | GI50 [12]: 17 µM | TGI [12]: > 47.1 µM | GI50 [13]: 14 µM | TGI [13]: 33.8 µM | GI50 [14]: 4.22 µM | TGI [14]: 26.3 µM | GI50 [15]: 15.2 µM | TGI [15]: 30.7 µM | GI50 [16]: 4.17 µM | TGI [16]: 20 µM | GI50 [17]: 16.4 µM | TGI [17]: 60.2 µM | GI50 [18]: 9.38 µM | TGI [18]: 28.2 µM | GI50 [19]: 15.4 µM | TGI [19]: 38.8 µM | GI50 [20]: 8.51 µM | TGI [20]: 24.4 µM | GI50 [21]: 14 µM | TGI [21]: 34.8 µM | GI50 [22]: 14.6 µM | TGI [22]: 32.1 µM | GI50 [23]: 13.3 µM | TGI [23]: 28 µM | GI50 [24]: 17.7 µM | TGI [24]: 37.8 µM | GI50 [25]: 19.1 µM | TGI [25]: 43.5 µM | GI50 [26]: 13 µM | TGI [26]: 26.7 µM | GI50 [27]: 11.9 µM | TGI [27]: 32.8 µM | GI50 [28]: 1900 nM | TGI [28]: 21.8 µM | GI50 [29]: 15.4 µM | TGI [29]: 32.8 µM | GI50 [30]: 16 µM | TGI [30]: 33.2 µM | GI50 [31]: 12.7 µM | TGI [31]: > 51.4 µM | GI50 [32]: 15.6 µM | TGI [32]: 33.8 µM | GI50 [33]: 19.4 µM | TGI [33]: 44.3 µM | GI50 [34]: 13.5 µM | TGI [34]: 33.5 µM | GI50 [35]: 14 µM | TGI [35]: 31.5 µM | GI50 [36]: 16.7 µM | TGI [36]: 30.5 µM | GI50 [37]: 23 µM | TGI [37]: 62.4 µM | GI50 [38]: 7.17 µM | TGI [38]: 26.8 µM | GI50 [39]: 3.5 µM | TGI [39]: 14.8 µM | GI50 [40]: 12.5 µM | TGI [40]: 32.1 µM | GI50 [41]: 13 µM | TGI [41]: 30.1 µM | GI50 [42]: 18.3 µM | TGI [42]: 39.3 µM | GI50 [43]: 2930 nM | TGI [43]: 23.9 µM | GI50 [44]: 22.7 µM | TGI [44]: > 65.7 µM | GI50 [45]: 16.9 µM | TGI [45]: 33.1 µM | GI50 [46]: 14.5 µM | TGI [46]: 30 µM | GI50 [47]: 18.9 µM | TGI [47]: 42.9 µM | GI50 [48]: 13.9 µM | TGI [48]: 27.8 µM | GI50 [49]: 7.97 µM | TGI [49]: 23 µM | GI50 [50]: 12.5 µM | TGI [50]: 28.4 µM | GI50 [51]: 20.3 µM | TGI [51]: 48.8 µM | GI50 [52]: 13.8 µM | TGI [52]: 40.9 µM | GI50 [53]: 15.4 µM | TGI [53]: 36.6 µM | GI50 [54]: 11.9 µM | TGI [54]: 24.4 µM | GI50 [55]: 13.4 µM | TGI [55]: 28.2 µM | GI50 [56]: 13.6 µM | TGI [56]: 27.7 µM | GI50 [57]: 15.5 µM | TGI [57]: 29.9 µM

Cc1c2c(OCCCCN3CCN(c4ncccn4)CC3)nn(C)c(=O)c2c(C)n1-c1ccccc1
TGI [1]: 34.7 µM | TGI [2]: 30.6 µM | TGI [3]: 40.9 µM | TGI [4]: 31.3 µM | TGI [5]: 34.5 µM | TGI [6]: 35.3 µM | TGI [7]: > 100 µM | TGI [8]: 34.8 µM | TGI [9]: 35.8 µM | TGI [10]: 36.6 µM | TGI [11]: 35 µM | TGI [12]: 31.7 µM | TGI [13]: 32.7 µM | TGI [14]: 47.2 µM | TGI [15]: 57.8 µM | TGI [16]: 31.8 µM | TGI [17]: 67.8 µM | TGI [18]: > 100 µM | TGI [19]: 35 µM | TGI [20]: > 100 µM | TGI [21]: 43.1 µM | TGI [22]: 44.5 µM | TGI [23]: 35.9 µM | TGI [24]: 35.7 µM | TGI [25]: 31.4 µM | TGI [26]: 30.7 µM | TGI [27]: 40.5 µM | TGI [28]: 84.6 µM | TGI [29]: 40.8 µM | TGI [30]: 37 µM | TGI [31]: 35.6 µM | TGI [32]: 38.2 µM | TGI [33]: 46.2 µM | TGI [34]: 41.9 µM | TGI [35]: 39.1 µM | TGI [36]: 37.6 µM | TGI [37]: 61.3 µM | TGI [38]: 37.3 µM | TGI [39]: 74.4 µM | TGI [40]: 41.8 µM | TGI [41]: 34.3 µM | TGI [42]: 32.4 µM | TGI [43]: 32.6 µM | TGI [44]: 34.6 µM | TGI [45]: 34.5 µM | TGI [46]: 26.8 µM | TGI [47]: 35.4 µM | TGI [48]: 34.5 µM | TGI [49]: 33.3 µM | TGI [50]: 39.4 µM | TGI [51]: 69.4 µM | TGI [52]: 45.8 µM | TGI [53]: 33.5 µM | TGI [54]: 32 µM | TGI [55]: 33.5 µM | TGI [56]: 31 µM | TGI [57]: 30.8 µM
